ChEMBL document CHEMBL3885861, “Open TG-GATES”

Organism: Rattus norvegicus
Assay: Open TG-GATES - Regimen: Single
Format: toxicity, organism-based, Sprague-Dawley
Parameters: regimen Single, gender Male, age 6 weeks
Settings: in vivo, po, route gavage; for gamma-GTP / ALP / ALT / AST / BUN / CRE / DBIL / GLC / IP / K / LDH / Na / PL / RALB / TBIL / TC / TG / TP: tissue Plasma; for APTT / Bas / Eos / Fbg / Hb / Ht / Lym / MCHC / MCV / Mono / Neu / PT / Plat / RBC / Ret / WBC: tissue Blood; for KIDNEY_L / KIDNEY_R / KIDNEY_TOTAL: tissue Kidney; for LIVER: tissue Liver
[1] = 300 mg/kg, 24 h, dose level Low

## C#C[C@]1(O)CC[C@H]2[C@@H]3CCC4=Cc5oncc5C[C@]4(C)[C@H]3CC[C@@]21C [DANAZOL]
0 mg/kg, 24 h, dose level Control
  gamma-GTP: 2.2 IU/L
300 mg/kg, 3 h, dose level Low
  TERMINAL_BW: 219.6 g
  APTT: 23.3 s
  Bas: 0%
  Eos: 0.6%
  Fbg: 297.4 mg/dL
  Hb: 13.6 g/dL
  Ht: 40.9%
  Lym: 84.4%
  MCHC: 33.3%
  MCV: 62.6 fL
  Mono: 1.6%
  Neu: 12.6%
  PT: 15.8 s
  Plat: 102 x10_4/uL
  RBC: 654 x10_4/ul
  Ret: 7.2%
  WBC: 80 x10_2/uL
  KIDNEY_L: 0.9 g
  KIDNEY_R: 1 g
  KIDNEY_TOTAL: 1.9 g
  LIVER: 9.9 g
  ALP: 1338.8 IU/L
  ALT: 43.4 IU/L
  AST: 77.6 IU/L
  BUN: 15.4 mg/dL
  CRE: 0.2 mg/dL
  DBIL: 0 mg/dL
  GLC: 178.6 mg/dL
  IP: 8.2 mg/dL
  K: 4.3 meq/L
  LDH: 149 IU/L
  Na: 141.6 meq/L
  PL: 131.8 mg/dL
  RALB: 2.9 g/dL
  TBIL: 0.016 mg/dL
  TC: 68.4 mg/dL
  TG: 87 mg/dL
  TP: 5.5 g/dL
  gamma-GTP: 1.8 IU/L
300 mg/kg, 6 h, dose level Low
  APTT: 23.9 s
  Bas: 0%
  Eos: 0.8%
  Fbg: 284.6 mg/dL
  Hb: 13 g/dL
  Ht: 40.1%
  Lym: 76.8%
  MCHC: 32.4%
  MCV: 63.6 fL
  Mono: 2.6%
  Neu: 18.8%
  PT: 16.7 s
  Plat: 120.1 x10_4/uL
  RBC: 631.8 x10_4/ul
  Ret: 7.6%
  WBC: 85.9 x10_2/uL
  KIDNEY_L: 0.9 g
  KIDNEY_R: 0.9 g
  KIDNEY_TOTAL: 1.9 g
  LIVER: 9 g
  ALP: 1332 IU/L
  ALT: 35.4 IU/L
  AST: 70.2 IU/L
  BUN: 10.2 mg/dL
  CRE: 0.2 mg/dL
  DBIL: 0.004 mg/dL
  GLC: 177.8 mg/dL
  IP: 9 mg/dL
  K: 4.3 meq/L
  LDH: 150.6 IU/L
  Na: 142.2 meq/L
  PL: 128.6 mg/dL
  RALB: 3 g/dL
  TBIL: 0.032 mg/dL
  TC: 64.2 mg/dL
  TG: 58 mg/dL
  TP: 5.3 g/dL
  gamma-GTP: 1.6 IU/L
300 mg/kg, 9 h, dose level Low
  TERMINAL_BW: 214.6 g
  APTT: 22.8 s
  Bas: 0%
  Eos: 0.8%
  Fbg: 295.4 mg/dL
  Hb: 13 g/dL
  Ht: 39.6%
  Lym: 78.6%
  MCHC: 32.8%
  MCV: 61.1 fL
  Mono: 2.4%
  Neu: 17.8%
  PT: 16.7 s
  Plat: 117.4 x10_4/uL
  RBC: 650.2 x10_4/ul
  Ret: 7.4%
  WBC: 72.2 x10_2/uL
  KIDNEY_L: 1 g
  KIDNEY_R: 1 g
  KIDNEY_TOTAL: 2 g
  LIVER: 9.5 g
  ALP: 1341.8 IU/L
  ALT: 35.8 IU/L
  AST: 66.2 IU/L
  BUN: 10.8 mg/dL
  CRE: 0.1 mg/dL
  DBIL: 0.002 mg/dL
  GLC: 185.8 mg/dL
  IP: 9.8 mg/dL
  K: 4.3 meq/L
  LDH: 132 IU/L
  Na: 142.4 meq/L
  PL: 109.4 mg/dL
  RALB: 2.9 g/dL
  TBIL: 0.024 mg/dL
  TC: 54.2 mg/dL
  TG: 57.2 mg/dL
  TP: 5.3 g/dL
  gamma-GTP: 1.8 IU/L
[1]
  TERMINAL_BW: 226.8 g
  APTT: 23.3 s
  Bas: 0%
  Eos: 0.6%
  Fbg: 307.6 mg/dL
  Hb: 13.2 g/dL
  Ht: 40.1%
  Lym: 81.8%
  MCHC: 32.9%
  MCV: 62.6 fL
  Mono: 2.2%
  Neu: 14.6%
  PT: 17 s
  Plat: 116.4 x10_4/uL
  RBC: 639.6 x10_4/ul
  Ret: 7.3%
  WBC: 87.1 x10_2/uL
  KIDNEY_L: 1 g
  KIDNEY_R: 1.1 g
  KIDNEY_TOTAL: 2.1 g
  LIVER: 11.5 g
  ALP: 1893.6 IU/L
  ALT: 37.4 IU/L
  AST: 66.4 IU/L
  BUN: 15.8 mg/dL
  CRE: 0.2 mg/dL
  DBIL: 0 mg/dL
  GLC: 187.6 mg/dL
  IP: 7.2 mg/dL
  K: 4.3 meq/L
  LDH: 167 IU/L
  Na: 141.2 meq/L
  PL: 130 mg/dL
  RALB: 3.1 g/dL
  TBIL: 0.002 mg/dL
  TC: 48.2 mg/dL
  TG: 223.8 mg/dL
  TP: 5.6 g/dL
  gamma-GTP: 1.4 IU/L
